Experimental data taken from US12377098B2, “Compositions and methods for the treatment of alopecia” (Follea International, priority 2023, dated 2025).

Tested on: scalp SULT1A1 enzyme
Conditions: oral, 20 subjects

`O=C([O-])O.[Na+]` [sodium bicarbonate] was tested, and the “subjects in whom the scalp SULT1A1 enzyme was induced” value (dosages exceeding 1,000 mg q.d.) was 18% and the “induction of the scalp SULT1A1 enzyme” value (dosages less than 500 mg q.d.) was “did induce”.
